Data taken from PubChem BioAssay (NCI).
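Interpolation was linear, between the two tested concentrations surrounding the appropriate level; five concentrations were tested over 48 hours in 96-well plates. TGI: concentration producing complete growth inhibition.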

What was measured:
Test in all cases: NCI tumour cell line growth inhibition, 48 h
SF-539 CNS = system: SF-539 CNS
A498 renal = system: A498 renal
HOP-92 NSCLC = system: HOP-92 NSCLC
COLO 205 colon = system: COLO 205 colon
NCI/ADR-RES ovarian = system: NCI/ADR-RES ovarian
CAKI-1 renal = system: CAKI-1 renal
KM12 colon = system: KM12 colon
PC-3 prostate = system: PC-3 prostate
UACC-257 melanoma = system: UACC-257 melanoma
OVCAR-8 ovarian = system: OVCAR-8 ovarian
HS 578T breast = system: HS 578T breast
MCF7 breast = system: MCF7 breast
NCI-H522 lung = system: NCI-H522 lung
SK-OV-3 ovarian = system: SK-OV-3 ovarian
OVCAR-5 ovarian = system: OVCAR-5 ovarian
MDA-MB-435 = system: MDA-MB-435
EKVX NSCLC = system: EKVX NSCLC
U251 CNS = system: U251 CNS
SF-268 CNS = system: SF-268 CNS
UO-31 renal = system: UO-31 renal
MOLT-4 leukemia = system: MOLT-4 leukemia
MDA-N = system: MDA-N
HOP-62 NSCLC = system: HOP-62 NSCLC
BT-549 breast = system: BT-549 breast
HCC-2998 colon = system: HCC-2998 colon
MALME-3M melanoma = system: MALME-3M melanoma
MDA-MB-231 breast = system: MDA-MB-231 breast
SNB-19 CNS = system: SNB-19 CNS
SK-MEL-5 melanoma = system: SK-MEL-5 melanoma
SN12C renal = system: SN12C renal
TK-10 renal = system: TK-10 renal
OVCAR-3 ovarian = system: OVCAR-3 ovarian
NCI-H226 lung = system: NCI-H226 lung
SW-620 colon = system: SW-620 colon
NCI-H460 lung = system: NCI-H460 lung
786-0 renal = system: 786-0 renal
K-562 leukemia = system: K-562 leukemia
DU-145 prostate = system: DU-145 prostate
SF-295 CNS = system: SF-295 CNS
HCT-15 colon = system: HCT-15 colon
M14 melanoma = system: M14 melanoma
A549 NSCLC = system: A549 NSCLC
RPMI-8226 leukemia = system: RPMI-8226 leukemia
NCI-H23 lung = system: NCI-H23 lung
ACHN renal = system: ACHN renal
SK-MEL-28 melanoma = system: SK-MEL-28 melanoma
OVCAR-4 ovarian = system: OVCAR-4 ovarian
SK-MEL-2 melanoma = system: SK-MEL-2 melanoma
HT29 colon = system: HT29 colon
T-47D breast = system: T-47D breast
UACC-62 melanoma = system: UACC-62 melanoma
HCT-116 colon = system: HCT-116 colon
RXF 393 renal = system: RXF 393 renal
LOX IMVI melanoma = system: LOX IMVI melanoma
SNB-75 CNS = system: SNB-75 CNS

Measured: TGI

N#CCCN(CCNc1ccccc1)C(=O)Nc1ccc(NC(=O)N(CCC#N)CCNc2ccccc2)cc1
> 66.3 µM: NCI-H522 lung
> 81.5 µM: HOP-92 NSCLC
> 84.7 µM: HOP-62 NSCLC
> 31.6 µM: OVCAR-4 ovarian
> 83 µM: RXF 393 renal
> 80.4 µM: BT-549 breast
> 64.2 µM: HS 578T breast
> 79.9 µM: SF-268 CNS
98 µM: TK-10 renal
72 µM: SNB-75 CNS
> 100 µM: all other assays above
